# According to PubChem BioAssay (NCI):
#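 Dose response: 5 concentrations. Exposure: 48 h. Format: 96-well plates. Endpoint: linear interpolation; highest concentration if not reached. TGI: total growth inhibition.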
# Key:
# Experiment in all cases: NCI-60 cell line screen, 48 h
# RPMI-8226 leukemia = tested on: RPMI-8226 leukemia
# MALME-3M melanoma = tested on: MALME-3M melanoma
# HCT-116 colon = tested on: HCT-116 colon
# UO-31 renal = tested on: UO-31 renal
# K-562 leukemia = tested on: K-562 leukemia
# OVCAR-5 ovarian = tested on: OVCAR-5 ovarian
# SNB-19 CNS = tested on: SNB-19 CNS
# TK-10 renal = tested on: TK-10 renal
# ACHN renal = tested on: ACHN renal
# IGROV1 ovarian = tested on: IGROV1 ovarian
# RXF 393 renal = tested on: RXF 393 renal
# UACC-257 melanoma = tested on: UACC-257 melanoma
# HCT-15 colon = tested on: HCT-15 colon
# SK-OV-3 ovarian = tested on: SK-OV-3 ovarian
# NCI/ADR-RES ovarian = tested on: NCI/ADR-RES ovarian
# NCI-H23 lung = tested on: NCI-H23 lung
# NCI-H522 lung = tested on: NCI-H522 lung
# COLO 205 colon = tested on: COLO 205 colon
# CAKI-1 renal = tested on: CAKI-1 renal
# SK-MEL-5 melanoma = tested on: SK-MEL-5 melanoma
# PC-3 prostate = tested on: PC-3 prostate
# SNB-75 CNS = tested on: SNB-75 CNS
# M14 melanoma = tested on: M14 melanoma
# HT29 colon = tested on: HT29 colon
# SK-MEL-28 melanoma = tested on: SK-MEL-28 melanoma
# OVCAR-8 ovarian = tested on: OVCAR-8 ovarian
# SF-295 CNS = tested on: SF-295 CNS
# MDA-N = tested on: MDA-N
# SF-268 CNS = tested on: SF-268 CNS
# EKVX NSCLC = tested on: EKVX NSCLC
# SW-620 colon = tested on: SW-620 colon
# MDA-MB-435 = tested on: MDA-MB-435
# SN12C renal = tested on: SN12C renal
# T-47D breast = tested on: T-47D breast
# HL-60(TB) leukemia = tested on: HL-60(TB) leukemia
# A498 renal = tested on: A498 renal
# 786-0 renal = tested on: 786-0 renal
# A549 NSCLC = tested on: A549 NSCLC
# SK-MEL-2 melanoma = tested on: SK-MEL-2 melanoma
# HOP-92 NSCLC = tested on: HOP-92 NSCLC
# U251 CNS = tested on: U251 CNS
# KM12 colon = tested on: KM12 colon
# MCF7 breast = tested on: MCF7 breast
# DU-145 prostate = tested on: DU-145 prostate
# MDA-MB-231 breast = tested on: MDA-MB-231 breast
# LOX IMVI melanoma = tested on: LOX IMVI melanoma
# HS 578T breast = tested on: HS 578T breast
# SF-539 CNS = tested on: SF-539 CNS
# UACC-62 melanoma = tested on: UACC-62 melanoma
# NCI-H226 lung = tested on: NCI-H226 lung
# CCRF-CEM leukemia = tested on: CCRF-CEM leukemia
# SR leukemia = tested on: SR leukemia
# NCI-H460 lung = tested on: NCI-H460 lung
# OVCAR-4 ovarian = tested on: OVCAR-4 ovarian
# MOLT-4 leukemia = tested on: MOLT-4 leukemia
# HOP-62 NSCLC = tested on: HOP-62 NSCLC
# HCC-2998 colon = tested on: HCC-2998 colon
compound,measurement,setting,value
CCOC(=O)C1C(C)C2(C#N)C(=N)OC1(C)C2(C#N)C#N (stereo not given),TGI,RPMI-8226 leukemia,43.8 µM
same,TGI,MALME-3M melanoma,> 100 µM
same,TGI,HCT-116 colon,> 100 µM
same,TGI,UO-31 renal,> 100 µM
same,TGI,K-562 leukemia,> 100 µM
same,TGI,OVCAR-5 ovarian,> 100 µM
same,TGI,SNB-19 CNS,> 100 µM
same,TGI,TK-10 renal,> 100 µM
same,TGI,ACHN renal,> 100 µM
same,TGI,IGROV1 ovarian,> 100 µM
same,TGI,RXF 393 renal,92.7 µM
same,TGI,UACC-257 melanoma,> 100 µM
same,TGI,HCT-15 colon,> 100 µM
same,TGI,SK-OV-3 ovarian,> 100 µM
same,TGI,NCI/ADR-RES ovarian,> 100 µM
same,TGI,NCI-H23 lung,> 100 µM
same,TGI,NCI-H522 lung,> 100 µM
same,TGI,COLO 205 colon,> 100 µM
same,TGI,CAKI-1 renal,> 100 µM
same,TGI,SK-MEL-5 melanoma,98.5 µM
same,TGI,PC-3 prostate,> 100 µM
same,TGI,SNB-75 CNS,> 100 µM
same,TGI,M14 melanoma,> 100 µM
same,TGI,HT29 colon,> 100 µM
same,TGI,SK-MEL-28 melanoma,> 100 µM
same,TGI,OVCAR-8 ovarian,> 100 µM
same,TGI,SF-295 CNS,> 100 µM
same,TGI,MDA-N,> 100 µM
same,TGI,SF-268 CNS,> 100 µM
same,TGI,EKVX NSCLC,> 100 µM
same,TGI,SW-620 colon,> 100 µM
same,TGI,MDA-MB-435,> 100 µM
same,TGI,SN12C renal,> 100 µM
same,TGI,T-47D breast,> 100 µM
same,TGI,HL-60(TB) leukemia,60.3 µM
same,TGI,A498 renal,> 100 µM
same,TGI,786-0 renal,> 100 µM
same,TGI,A549 NSCLC,> 100 µM
same,TGI,SK-MEL-2 melanoma,> 100 µM
same,TGI,HOP-92 NSCLC,97.1 µM
same,TGI,U251 CNS,> 100 µM
same,TGI,KM12 colon,> 100 µM
same,TGI,MCF7 breast,> 100 µM
same,TGI,DU-145 prostate,> 100 µM
same,TGI,MDA-MB-231 breast,> 100 µM
same,TGI,LOX IMVI melanoma,67.1 µM
same,TGI,HS 578T breast,> 100 µM
same,TGI,SF-539 CNS,> 100 µM
same,TGI,UACC-62 melanoma,> 100 µM
same,TGI,NCI-H226 lung,> 100 µM
C=C(C)[C@@]1(O)CCCC[C@@H]1CC(Sc1ccccc1)Sc1ccccc1,TGI,RPMI-8226 leukemia,33.9 µM
same,TGI,MALME-3M melanoma,26.2 µM
same,TGI,HCT-116 colon,30.2 µM
same,TGI,UO-31 renal,31.5 µM
same,TGI,K-562 leukemia,44.4 µM
same,TGI,OVCAR-5 ovarian,30.7 µM
same,TGI,SNB-19 CNS,38.3 µM
same,TGI,TK-10 renal,30 µM
same,TGI,ACHN renal,> 100 µM
same,TGI,IGROV1 ovarian,33.6 µM
same,TGI,CCRF-CEM leukemia,> 100 µM
same,TGI,RXF 393 renal,29.2 µM
same,TGI,UACC-257 melanoma,48.7 µM
same,TGI,HCT-15 colon,33.3 µM
same,TGI,SK-OV-3 ovarian,39.6 µM
same,TGI,NCI/ADR-RES ovarian,34 µM
same,TGI,SR leukemia,34.8 µM
same,TGI,NCI-H23 lung,29.9 µM
same,TGI,NCI-H522 lung,26.5 µM
same,TGI,COLO 205 colon,31 µM
same,TGI,CAKI-1 renal,28.8 µM
same,TGI,SK-MEL-5 melanoma,29.5 µM
same,TGI,PC-3 prostate,34.8 µM
same,TGI,SNB-75 CNS,30 µM
same,TGI,M14 melanoma,39.3 µM
same,TGI,HT29 colon,42.5 µM
same,TGI,SK-MEL-28 melanoma,38.6 µM
same,TGI,OVCAR-8 ovarian,38.6 µM
same,TGI,NCI-H460 lung,29.4 µM
same,TGI,SF-295 CNS,32.8 µM
same,TGI,MDA-N,47.8 µM
same,TGI,SF-268 CNS,31.1 µM
same,TGI,EKVX NSCLC,28.7 µM
same,TGI,MDA-MB-435,33 µM
same,TGI,SN12C renal,32.4 µM
same,TGI,T-47D breast,29 µM
same,TGI,HL-60(TB) leukemia,78.4 µM
same,TGI,A498 renal,68.4 µM
same,TGI,786-0 renal,39.9 µM
same,TGI,OVCAR-4 ovarian,29.1 µM
same,TGI,MOLT-4 leukemia,32.5 µM
same,TGI,A549 NSCLC,34.4 µM
same,TGI,SK-MEL-2 melanoma,30.1 µM
same,TGI,HOP-92 NSCLC,18.9 µM
same,TGI,HOP-62 NSCLC,35 µM
same,TGI,U251 CNS,53.9 µM
same,TGI,KM12 colon,35.1 µM
same,TGI,MCF7 breast,53.9 µM
same,TGI,DU-145 prostate,30.1 µM
same,TGI,MDA-MB-231 breast,38.7 µM
same,TGI,LOX IMVI melanoma,31.2 µM
same,TGI,HS 578T breast,35.1 µM
same,TGI,UACC-62 melanoma,> 100 µM
same,TGI,HCC-2998 colon,32.4 µM
same,TGI,NCI-H226 lung,32.1 µM
